ChEMBL document CHEMBL1201862, “PubChem BioAssay data set” (2004)
Calls of active or inactive are those of the source.

Tests used:
[1] = target: T1, Sentrin-specific protease 7 (Homo sapiens, UniProt Q9BQF6); assay: SENP7 protease inhibitors, SAR follow-up, biochemical, luminescence (AID 504497); format: functional
T1 sequence (Q9BQF6 whole entry): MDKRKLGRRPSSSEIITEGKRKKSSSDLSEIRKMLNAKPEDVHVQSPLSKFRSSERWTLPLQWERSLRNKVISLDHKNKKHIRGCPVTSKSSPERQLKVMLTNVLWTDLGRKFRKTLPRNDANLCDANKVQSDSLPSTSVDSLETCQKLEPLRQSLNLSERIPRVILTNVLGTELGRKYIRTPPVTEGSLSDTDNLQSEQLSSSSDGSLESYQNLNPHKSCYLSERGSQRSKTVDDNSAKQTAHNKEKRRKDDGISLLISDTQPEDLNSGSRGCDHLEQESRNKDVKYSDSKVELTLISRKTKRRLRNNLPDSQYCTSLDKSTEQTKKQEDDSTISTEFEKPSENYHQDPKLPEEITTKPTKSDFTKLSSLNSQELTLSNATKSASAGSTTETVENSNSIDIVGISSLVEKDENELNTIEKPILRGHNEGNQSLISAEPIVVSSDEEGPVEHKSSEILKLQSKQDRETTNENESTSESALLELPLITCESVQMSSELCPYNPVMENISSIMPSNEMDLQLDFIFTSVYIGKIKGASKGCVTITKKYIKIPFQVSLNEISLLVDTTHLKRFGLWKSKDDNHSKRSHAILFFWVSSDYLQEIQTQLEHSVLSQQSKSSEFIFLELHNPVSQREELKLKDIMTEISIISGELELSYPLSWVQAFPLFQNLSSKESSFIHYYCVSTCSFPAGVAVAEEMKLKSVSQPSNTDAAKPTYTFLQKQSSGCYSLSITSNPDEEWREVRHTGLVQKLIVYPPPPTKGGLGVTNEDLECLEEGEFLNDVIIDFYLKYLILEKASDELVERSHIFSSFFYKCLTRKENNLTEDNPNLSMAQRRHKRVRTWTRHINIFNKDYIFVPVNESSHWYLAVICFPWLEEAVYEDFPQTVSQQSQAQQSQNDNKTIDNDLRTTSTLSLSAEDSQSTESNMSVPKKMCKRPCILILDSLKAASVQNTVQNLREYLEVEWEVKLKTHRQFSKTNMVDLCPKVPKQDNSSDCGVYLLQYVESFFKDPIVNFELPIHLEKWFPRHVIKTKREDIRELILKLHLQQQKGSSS

[2] = target: T2, Sentrin-specific protease 8 (Homo sapiens, UniProt Q96LD8); assay: SENP8 protease inhibitors, SAR follow-up, biochemical, luminescence (AID 504501); format: functional
T2 sequence (Q96LD8 whole entry): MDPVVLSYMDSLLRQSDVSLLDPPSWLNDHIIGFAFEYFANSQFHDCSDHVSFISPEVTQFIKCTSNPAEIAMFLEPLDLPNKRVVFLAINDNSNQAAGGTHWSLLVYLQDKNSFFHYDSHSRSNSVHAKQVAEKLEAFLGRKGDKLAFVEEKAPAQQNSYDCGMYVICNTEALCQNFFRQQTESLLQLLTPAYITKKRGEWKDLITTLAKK

[3] = target: T3, Caspase-3 (Homo sapiens, UniProt P42574); assay: SAR Analysis of small molecule inhibitors of Sentrin-specific proteases (SENPs) using a Caspase-3 Selectivity assay. [Related pubchem assays (depositor defined):AID2540, AID2599, AID434973, AID489001]; format: functional
T3 sequence (P42574 whole entry): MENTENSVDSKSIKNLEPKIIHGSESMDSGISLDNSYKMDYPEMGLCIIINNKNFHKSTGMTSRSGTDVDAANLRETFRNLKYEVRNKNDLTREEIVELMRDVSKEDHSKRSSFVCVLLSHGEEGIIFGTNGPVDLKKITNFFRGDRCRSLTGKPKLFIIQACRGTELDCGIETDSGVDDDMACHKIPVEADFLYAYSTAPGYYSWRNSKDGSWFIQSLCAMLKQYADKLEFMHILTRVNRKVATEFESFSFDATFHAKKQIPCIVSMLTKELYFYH

[4] = target: T4, Sentrin-specific protease 6 (Homo sapiens, UniProt Q9GZR1); assay: SAR Analysis of small molecule inhibitors of Sentrin-specific protease 6 (SENP6) using a Luminescent assay. [Related pubchem assays (depositor defined):AID2582, AID2599]; format: functional
T4 sequence (Q9GZR1 whole entry): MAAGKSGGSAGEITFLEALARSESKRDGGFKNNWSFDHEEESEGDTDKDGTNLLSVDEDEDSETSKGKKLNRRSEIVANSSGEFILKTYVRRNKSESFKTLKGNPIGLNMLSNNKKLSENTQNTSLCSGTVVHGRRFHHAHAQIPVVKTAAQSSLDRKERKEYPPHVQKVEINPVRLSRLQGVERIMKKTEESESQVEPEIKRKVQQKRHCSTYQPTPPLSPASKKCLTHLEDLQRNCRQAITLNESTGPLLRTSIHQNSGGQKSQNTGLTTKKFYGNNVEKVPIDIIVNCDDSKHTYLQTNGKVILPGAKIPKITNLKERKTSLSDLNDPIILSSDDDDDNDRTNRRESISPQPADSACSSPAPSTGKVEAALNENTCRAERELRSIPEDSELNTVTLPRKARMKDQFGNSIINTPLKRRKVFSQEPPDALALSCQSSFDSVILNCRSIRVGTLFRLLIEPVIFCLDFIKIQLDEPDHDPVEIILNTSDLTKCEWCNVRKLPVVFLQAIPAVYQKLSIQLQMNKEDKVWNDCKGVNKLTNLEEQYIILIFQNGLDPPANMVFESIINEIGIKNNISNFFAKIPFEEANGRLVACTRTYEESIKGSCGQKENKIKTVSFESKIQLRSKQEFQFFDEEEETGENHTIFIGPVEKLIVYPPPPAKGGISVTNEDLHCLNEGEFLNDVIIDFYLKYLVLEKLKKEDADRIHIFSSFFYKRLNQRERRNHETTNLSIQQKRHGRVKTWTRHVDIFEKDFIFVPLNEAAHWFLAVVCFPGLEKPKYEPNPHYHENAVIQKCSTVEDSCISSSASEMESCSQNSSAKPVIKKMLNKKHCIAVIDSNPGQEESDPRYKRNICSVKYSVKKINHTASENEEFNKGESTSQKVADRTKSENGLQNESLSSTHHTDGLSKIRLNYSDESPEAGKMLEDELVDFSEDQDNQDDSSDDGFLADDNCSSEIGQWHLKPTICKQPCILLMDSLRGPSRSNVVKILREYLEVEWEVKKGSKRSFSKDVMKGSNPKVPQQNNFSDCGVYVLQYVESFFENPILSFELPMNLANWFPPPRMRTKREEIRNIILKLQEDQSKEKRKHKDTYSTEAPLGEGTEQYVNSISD

[5] = target: T5, Cytochrome P450 1A2 (Homo sapiens, UniProt P05177);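 further: PubChem cytochrome P450 panel assay, CYP1A2 panel member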
T5 sequence (P05177 whole entry): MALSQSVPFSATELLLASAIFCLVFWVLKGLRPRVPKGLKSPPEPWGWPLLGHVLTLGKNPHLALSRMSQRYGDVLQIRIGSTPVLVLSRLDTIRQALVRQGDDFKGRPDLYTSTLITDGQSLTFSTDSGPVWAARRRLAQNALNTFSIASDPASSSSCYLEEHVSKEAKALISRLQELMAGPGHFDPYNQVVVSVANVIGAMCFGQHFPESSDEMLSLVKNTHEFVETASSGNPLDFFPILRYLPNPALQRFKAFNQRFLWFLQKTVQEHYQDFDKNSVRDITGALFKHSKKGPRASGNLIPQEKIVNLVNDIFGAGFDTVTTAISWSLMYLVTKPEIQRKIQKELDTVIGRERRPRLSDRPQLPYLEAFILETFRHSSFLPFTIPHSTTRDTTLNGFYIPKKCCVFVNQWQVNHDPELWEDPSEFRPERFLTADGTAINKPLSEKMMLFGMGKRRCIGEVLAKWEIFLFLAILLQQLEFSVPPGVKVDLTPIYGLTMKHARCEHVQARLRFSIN

[6] = target: T6, Insulin-degrading enzyme (Homo sapiens, UniProt P14735); assay: activators of endogenous IDE in HEK cells, dose response, cell-based, fluorescence polarization (AID 588439); format: functional
T6 sequence (P14735 whole entry): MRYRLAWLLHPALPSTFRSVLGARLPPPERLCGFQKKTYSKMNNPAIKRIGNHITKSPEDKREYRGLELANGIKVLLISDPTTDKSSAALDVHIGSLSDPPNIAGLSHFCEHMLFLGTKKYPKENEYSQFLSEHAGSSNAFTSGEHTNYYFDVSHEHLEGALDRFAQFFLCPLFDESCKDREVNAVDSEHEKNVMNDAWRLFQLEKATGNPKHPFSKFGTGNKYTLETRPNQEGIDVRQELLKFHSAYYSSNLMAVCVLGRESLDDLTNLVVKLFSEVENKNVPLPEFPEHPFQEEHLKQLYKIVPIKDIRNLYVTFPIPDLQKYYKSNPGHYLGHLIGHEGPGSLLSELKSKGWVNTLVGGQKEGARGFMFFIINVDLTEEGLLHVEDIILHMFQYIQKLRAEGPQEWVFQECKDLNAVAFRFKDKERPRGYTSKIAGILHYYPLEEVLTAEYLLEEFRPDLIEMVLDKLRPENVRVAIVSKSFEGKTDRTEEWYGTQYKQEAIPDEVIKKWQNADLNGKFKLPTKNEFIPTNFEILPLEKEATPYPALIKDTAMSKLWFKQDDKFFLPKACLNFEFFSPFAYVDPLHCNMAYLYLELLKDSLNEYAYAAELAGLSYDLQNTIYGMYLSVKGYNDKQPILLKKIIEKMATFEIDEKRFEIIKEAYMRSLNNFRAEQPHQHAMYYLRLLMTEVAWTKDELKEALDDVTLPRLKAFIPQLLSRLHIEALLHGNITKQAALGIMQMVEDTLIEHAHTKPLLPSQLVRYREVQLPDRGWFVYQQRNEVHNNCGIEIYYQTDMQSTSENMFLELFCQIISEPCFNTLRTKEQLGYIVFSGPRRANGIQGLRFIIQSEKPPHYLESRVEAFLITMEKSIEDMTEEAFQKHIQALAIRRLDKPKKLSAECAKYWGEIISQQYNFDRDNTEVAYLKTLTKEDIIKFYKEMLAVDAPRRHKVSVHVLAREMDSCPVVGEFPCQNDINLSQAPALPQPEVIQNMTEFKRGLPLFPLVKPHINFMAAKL

[7] = target: Mu-type opioid receptor (Homo sapiens, UniProt P35372); format: functional, cell-based;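 further: U2OS cells with beta-arrestin recruitment to OPRM1 by beta-gal complementation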
Sequence of Mu-type opioid receptor (P35372 whole entry): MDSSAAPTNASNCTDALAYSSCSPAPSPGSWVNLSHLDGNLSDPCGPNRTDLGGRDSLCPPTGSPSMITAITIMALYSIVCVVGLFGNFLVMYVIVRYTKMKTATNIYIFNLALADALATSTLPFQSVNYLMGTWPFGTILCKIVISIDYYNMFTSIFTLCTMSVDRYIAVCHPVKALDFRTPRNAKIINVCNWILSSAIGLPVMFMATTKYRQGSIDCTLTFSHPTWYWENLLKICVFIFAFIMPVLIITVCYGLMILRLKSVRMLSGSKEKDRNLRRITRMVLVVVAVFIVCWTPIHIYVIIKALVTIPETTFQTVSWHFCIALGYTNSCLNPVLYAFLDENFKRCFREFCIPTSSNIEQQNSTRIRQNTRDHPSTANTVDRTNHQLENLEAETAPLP

[8] = target: 5-hydroxytryptamine receptor 2A (Mus musculus, UniProt P35363); format: functional, cell-based;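 further: CHO-K1 cells with tagged receptor and beta-arrestin; agonist potency measured as compound-induced activation of the receptor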
Sequence of 5-hydroxytryptamine receptor 2A (P35363 whole entry): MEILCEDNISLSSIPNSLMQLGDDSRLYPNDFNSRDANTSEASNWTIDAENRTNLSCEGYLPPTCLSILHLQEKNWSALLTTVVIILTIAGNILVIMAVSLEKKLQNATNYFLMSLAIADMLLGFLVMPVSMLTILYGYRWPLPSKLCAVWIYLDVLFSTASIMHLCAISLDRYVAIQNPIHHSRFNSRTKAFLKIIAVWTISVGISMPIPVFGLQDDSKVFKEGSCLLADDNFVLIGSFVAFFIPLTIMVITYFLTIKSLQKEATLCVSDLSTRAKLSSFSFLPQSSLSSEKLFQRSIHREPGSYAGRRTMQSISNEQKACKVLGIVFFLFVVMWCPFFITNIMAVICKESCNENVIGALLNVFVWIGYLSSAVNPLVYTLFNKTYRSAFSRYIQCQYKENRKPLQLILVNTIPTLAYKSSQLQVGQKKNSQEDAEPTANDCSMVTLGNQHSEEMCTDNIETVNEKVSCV

[9] = target: NAD-dependent protein deacylase sirtuin-5, mitochondrial (Homo sapiens, UniProt Q9NXA8); assay: SIRT5 desuccinylase inhibitors, dose response, biochemical, fluorescence imaging, cherry-pick, set 5 (AID 720591);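 further: desuccinylation of succinyl peptide AMC substrate read as fluorescence after trypsin release; potency of inhibitors that lower fluorescence and may act on trypsin instead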
Sequence of NAD-dependent protein deacylase sirtuin-5, mitochondrial (Q9NXA8 whole entry): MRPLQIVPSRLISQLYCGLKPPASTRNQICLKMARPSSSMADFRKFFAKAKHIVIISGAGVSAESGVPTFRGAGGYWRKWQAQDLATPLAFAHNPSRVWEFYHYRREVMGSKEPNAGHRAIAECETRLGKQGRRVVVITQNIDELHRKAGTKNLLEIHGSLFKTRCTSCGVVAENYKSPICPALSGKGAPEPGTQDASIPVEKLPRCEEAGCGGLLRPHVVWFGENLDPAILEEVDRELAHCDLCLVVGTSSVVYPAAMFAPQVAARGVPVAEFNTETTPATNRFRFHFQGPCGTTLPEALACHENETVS

[10] = target: T6, Insulin-degrading enzyme; assay: activators of recombinant IDE enzyme, dose response, counter-screen for IDE activator project, biochemical, fluorescence polarization (AID 588681)
[11] = tested on: HEK293; assay: optical interference in Abeta FP readout, dose response, artefact control for IDE activator project, biochemical, fluorescence polarization (AID 588442); format: functional, cell-based; details: Homo sapiens
[12] = tested on: HEK293; assay: HEK cell cytotoxicity by LDH release, dose response, cytotoxicity control for IDE activator project, fluorescence, HEK cells (AID 588440); format: functional, cell-based; details: Homo sapiens;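 further: cytotoxicity by LDH release measuring loss of membrane integrity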
[13] = Luminescence Cell-Based Dose Retest to Confirm Inhibitors of Cancer Stem Cells. [Related pubchem assays (depositor defined):AID2717, AID2721]; format: functional; details: Homo sapiens
[14] = target: Voltage-gated inwardly rectifying potassium channel KCNH2 (Homo sapiens, UniProt Q12809); details: Potency;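 further: confirmatory quantitative high-throughput screen measuring inhibition of hERG channel activity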
Sequence of Voltage-gated inwardly rectifying potassium channel KCNH2 (Q12809 whole entry): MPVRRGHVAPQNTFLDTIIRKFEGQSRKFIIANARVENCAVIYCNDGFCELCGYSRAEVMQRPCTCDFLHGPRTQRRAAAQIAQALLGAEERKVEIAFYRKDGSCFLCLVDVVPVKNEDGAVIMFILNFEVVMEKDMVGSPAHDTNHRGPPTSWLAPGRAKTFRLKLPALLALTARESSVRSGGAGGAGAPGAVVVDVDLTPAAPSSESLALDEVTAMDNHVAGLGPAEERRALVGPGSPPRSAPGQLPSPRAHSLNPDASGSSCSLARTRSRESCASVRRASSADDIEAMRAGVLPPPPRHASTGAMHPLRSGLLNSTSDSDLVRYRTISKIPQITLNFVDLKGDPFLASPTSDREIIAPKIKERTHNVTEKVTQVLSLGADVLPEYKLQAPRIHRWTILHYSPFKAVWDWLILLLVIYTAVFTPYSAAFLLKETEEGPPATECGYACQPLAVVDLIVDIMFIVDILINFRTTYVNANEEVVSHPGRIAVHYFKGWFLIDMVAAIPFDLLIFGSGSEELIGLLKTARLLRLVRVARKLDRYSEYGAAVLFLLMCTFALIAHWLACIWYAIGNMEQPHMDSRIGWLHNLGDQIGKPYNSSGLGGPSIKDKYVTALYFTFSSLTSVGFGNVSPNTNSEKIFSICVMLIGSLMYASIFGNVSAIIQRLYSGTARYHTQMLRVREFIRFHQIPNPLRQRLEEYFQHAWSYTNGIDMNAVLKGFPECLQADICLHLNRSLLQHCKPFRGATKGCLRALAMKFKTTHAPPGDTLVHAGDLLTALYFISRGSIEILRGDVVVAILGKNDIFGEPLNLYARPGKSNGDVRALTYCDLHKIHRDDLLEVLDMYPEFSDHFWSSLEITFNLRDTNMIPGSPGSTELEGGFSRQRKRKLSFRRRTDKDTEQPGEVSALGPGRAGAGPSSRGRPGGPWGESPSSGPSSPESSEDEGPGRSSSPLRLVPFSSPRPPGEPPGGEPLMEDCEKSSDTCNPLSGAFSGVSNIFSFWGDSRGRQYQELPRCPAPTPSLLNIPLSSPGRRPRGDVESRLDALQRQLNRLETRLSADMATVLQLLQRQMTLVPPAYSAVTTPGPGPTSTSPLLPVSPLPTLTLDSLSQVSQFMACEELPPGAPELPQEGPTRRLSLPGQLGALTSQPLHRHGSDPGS

| SMILES | IC50 [1] | IC50 [2] | IC50 [3] | IC50 [4] | AC50 [5] | EC50 [6] | EC50 [7] | EC50 [8] | AC50 [9] | EC50 [10] | EC50 [11] | IC50 [12] | AC50 [13] | AC50 [14] |
| --- | --- | --- | --- | --- | --- | --- | --- | --- | --- | --- | --- | --- | --- | --- |
| O=C(NCCc1ccccc1)C(=O)c1c[nH]c2ccccc12 | > 99 µM (inactive) | > 99 µM (inactive) | > 99 µM (inactive) | > 99 µM (inactive) | – | – | – | – | – | – | – | – | – | – |
| CCCCCCCC/C=C\CCCCCCCC(=O)NCCc1ccc(O)c(O)c1 [OLEOYL DOPAMINE] | – | – | – | – | 20 µM (inconclusive) | 8.94 µM (active) | 92.3 µM (inactive) | 0.957 µM (active) | 18.1 µM (active) | > 54.7 µM (inactive) | > 54.7 µM (inactive) | 30.5 µM (inactive) | 2.59 µM (active) | 35.5 µM (inconclusive) |
